The values that follow come from the SangsterLogP compilation.

Each structure is given as a SMILES string.

`CSc1n[nH]c(C2C3C=CC(C3)C2C(=O)Nc2ccc(Br)cc2)n1` (stereo unspecified) had a logP of 3.67.
For the compound `COc1ccc(NC(=O)C2CCCCC2c2nc(SC)n[nH]2)cc1` (stereo unspecified), the logP came to 3.19.
Next, `COc1ccc(NC(=O)C2C3C=CC(C3)C2c2nc(SC)n[nH]2)cc1` (stereo unspecified): 2.86; `CCCCNC(=O)C1C2C=CC(C2)C1c1nc(SC)n[nH]1` (stereo unspecified): 2.55.
In turn, `CSc1n[nH]c(C2C3C=CC(C3)C2C(=O)NCc2ccccc2)n1` (stereo unspecified) showed a logP of 2.8.
Regarding `CSc1n[nH]c(C2C3C=CC(C3)C2C(=O)NCCc2ccccc2)n1` (stereo unspecified), the logP stood at 3.12.
As for `CSc1n[nH]c(C2C3C=CC(C3)C2C(=O)Nc2ccccc2Cl)n1` (stereo unspecified), the figure is 3.44; as for `CCCCNC(=O)C1CCCCC1c1nc(SC)n[nH]1` (stereo unspecified), 2.97; as for `CSc1n[nH]c(C2CCCCC2C(=O)NCCc2ccccc2)n1` (stereo unspecified), 3.51.
As for `CSc1n[nH]c(C2C3C=CC(C3)C2C(=O)Nc2ccccc2)n1` (stereo unspecified), the figure is 2.91; as for `CCC(C)NC(=O)C1C2C=CC(C2)C1c1nc(SC)n[nH]1` (stereo unspecified), 2.57; as for `CCCNC(=O)C1C2C=CC(C2)C1c1nc(SC)n[nH]1` (stereo unspecified), 2.13.
Consider `CSc1n[nH]c(C2CCCCC2C(=O)Nc2ccccc2)n1` (stereo unspecified), for which the logP was 3.3.
Turning to `CSc1n[nH]c(C2CCCCC2C(=O)Nc2ccccc2Cl)n1` (stereo unspecified), the logP is 3.84.
Next, `CSc1n[nH]c(C2CCCCC2C(=O)Nc2ccc(Br)cc2)n1` (stereo unspecified): 4.02; `CSc1n[nH]c(C2C3C=CC(C3)C2C(=O)Nc2cccc(C)c2)n1` (stereo unspecified): 3.29.
Next, `CSc1n[nH]c(C2C3C=CC(C3)C2C(=O)NC2CCCCC2)n1` (stereo unspecified): 3.03; `CCC(C)NC(=O)C1CCCCC1c1nc(SC)n[nH]1` (stereo unspecified): 2.97.
`CSc1n[nH]c(C2CCCCC2C(=O)NC2CCCCC2)n1` (stereo unspecified) yielded a logP of 3.48.
Take `CSc1n[nH]c(C2CCCCC2C(=O)NCc2ccccc2)n1` (stereo unspecified): the logP stood at 3.17.
As for `CCCNC(=O)C1CCCCC1c1nc(SC)n[nH]1` (stereo unspecified), the figure is 2.55.

By logP is commonly meant a log measure of how a compound divides between an organic and an aqueous phase. The low end stands for lower lipophilicity, the high end for higher lipophilicity.
